Data reported in patent publication US20150335719A1, “Intravitreal Injection of a Chimeric Phage Endolysin Ply187; Protection from Staphylococcus aureus Endophthalmitis” (priority 2014, published 2015).

Assays:
S. aureus strain RN6390 = assay: Resistance development assay by repeated exposure in an MIC assay; assay type: cell-based, Staphylococcus aureus; conditions: RN6390, up to 10 rounds of exposure
Description: Error bars represent SEM for three independent experiments performed in triplicates. […] Cells surviving at half (½) of the MIC value were used as an inoculum for each subsequent round of exposure. The change in susceptibility is recorded and presented as fold change resistance from day 1 to 10 of exposure and also after 5 days of growth (without any selection pressure) following the 10th day (represented as 10+5). The data represent means±SEM of two independent experiments performed in triplicate.
To verify and quantify the lytic activity against live S. aureus, we have tested Ply187AN-KSH3b in the Turbidity Reduction Assay. The turbidity assay measures the drop in optical density (OD) resulting from lysis of the target bacteria with the phage endolysin-derived protein. Turbidity reduction assays by chimeric Ply187AN-KSH3b were performed in a 96 well plate as described previously by Becker et al. (2009a, 2009b, supra). Briefly, S. aureus strains/isolates RN6390, USA 300, and clinical isolates R2932, R2952 and R3000 were grown to logarithmic phase (OD600 0.4-0.6) at 37° C. in tryptic Soy broth (TSB). The culture was harvested by centrifugation and the pellet was resuspended in assay buffer (400 mM NaCl, 20 mM Tris HCl, 1% glycerol, pH 7.5). Bacterial cultures (100 μl/well) were mixed with 100 μl of (as per MIC) of chimeric Ply187AN-KSH3b protein diluted in the same assay buffer. The reduction in the turbidity was measured after every 5 min up to 1 h using a micro plate reader. EB diluted in the same assay buffer (without chimeric Ply187AN-KSH3b protein) was used as a control (EB C). Resistance development against chimeric Ply187AN-KSH3b was tested using repeated exposure in an MIC assay as described by Rodriguez-Rubio and co-workers (Rodriguez-Rubio et al., PLoS One 8:e64671.). In brief, bacterial cultures (10^5 CFU/well) were exposed overnight to a 2-fold serial dilution of chimeric Ply187AN-KSH3b, lysostaphin, and gentamicin, where the latter serve as controls. […]

[1] = test system: S. aureus (strain RN6390, USA 300, R 2932, R 2952, R 3000) biofilms; assay: Biofilm disruption (Live/Dead BacLight staining and CFU count); assay type: cell-based, Staphylococcus aureus; conditions: 24 h biofilms treated for 30 min
Description: FIGS. 2A-2E depicts the biofilm disruption activity of chimeric Ply187AN-KSH3b. In FIG. 2A-2E, either chimeric Ply187AN-KSH3b or EB (EB C) or Gentamicin (for MDR/MRSA strains/isolates) was applied to cover slips containing S. aureus RN6390 (FIG. 2A), USA 300 (FIG. 2B), R 2932 (FIG. 2C), R 2952 (FIG. 2D) and R3000 (FIG. 2E) biofilms for 30 min. Bacterial killing was assessed via Live/Dead™ staining and subsequent fluorescence microscopy. FIG. 2F depicts the viability of biofilm associated bacteria enumerated by CFU count. Error bars represent the mean±SEM of two independent experiments performed in triplicate.
Biofilm disruption by the chimeric Ply187AN-KSH3b was observed using Live/Dead BacLight™ staining which takes advantage of SYTO™ 9, a green-fluorescent nucleic acid stain and propidium iodide that fluoresces red. SYTO™ 9 labels a bacterial population with an intact membrane and fluoresces green. In contrast, propidium iodide penetrates bacteria with damaged membranes and fluoresces red. Briefly, static biofilms of S. aureus (strain RN6390, USA 300, R 2932, R 2952, R 3000) were grown on glass cover slips in 6 well tissue culture plates in fresh TSB media seeded with S. aureus. After incubation at 37° C. for 24 h, the biofilms were treated for an additional 30 min with chimeric Ply187AN-KSH3b (as per MIC) diluted in EB or with EB/gentamicin alone. The biofilms were then stained with the Live/Dead BacLight™ bacterial viability kit (Invitrogen, Carlsbad, Calif.), per manufacturer's instruction. The cover slips were washed three times with PBS to remove excess stain and cell debris, mounted with mounting oil on a glass slide, and examined with an Eclipse 90i fluorescence microscope (Nikon, Melville, N.Y.).

Substance | fold change in resistance (S. aureus strain RN6390) [fold] | biofilm disruption by Live/Dead staining [1]
lysostaphin | 128 | –
gentamicin [reference compound] | 16 | green fluorescence
